From patent US20250009891A1, “CONJUGATES OF MONOCYCLIC BETA-LACTAMS AND SIDEROPHORE MIMETICS” (UNIVERSITY OF NOTRE DAME DU LAC, priority 2021, published 2025)
Converted amounts (≈) assume the structure as drawn. Read-outs that look alike come from different tables or passages of the source.

What was measured:
[1] = test system: A. baumannii ATCC 17961; assay: In vitro antibacterial assay (MIC); assay type: cell-based, Acinetobacter baumannii; conditions: duplicate assays
Description: (§1) Antibacterial assay results of new aztreonam derivatives (27, 30, 32 and 37), aztreonam (9a) and earlier data of conjugate 23 are shown in Table 1. The assays were performed using iron deficient media appropriate for screening siderophore conjugates as described previously. […] As expected, none of the compounds were active against the Gram-positive S. aureus. […] Of special interest is the significant inhibitory activity against problematic strains of A. baumannii and P. aeruginosa, including cephalosporinase and carbapenemase producers (A. baumannii TCC 17978 pNT320 and ATCC 17978 pNT165, respectively) which are on the World Health Organization (WHO) list of multi-drug resistant (MDR) pathogens of greatest concern.

[2] = test system: A. baumannii ATCC 17978 pNT320 (cephalosporinase producing strain); assay: In vitro antibacterial assay (MIC); assay type: cell-based, Acinetobacter baumannii; conditions: iron deficient media, duplicate assays
Description: as §1

[3] = test system: A. baumannii ATCC BAA 1797; assay: In vitro antibacterial assay (MIC); assay type: cell-based, Acinetobacter baumannii; conditions: duplicate assays
Description: as §1

[4] = test system: B. dolosa AU0018; assay: In vitro antibacterial assay (MIC); assay type: cell-based
Description: as §1

[5] = test system: C. freundii ATCC 19063; assay: In vitro antibacterial assay (MIC); assay type: cell-based; conditions: iron deficient media, duplicate assays
Description: as §1

[6] = test system: E. aerogenes X816; assay: In vitro antibacterial assay (MIC); assay type: cell-based; conditions: iron deficient media, duplicate assays
Description: as §1

[7] = test system: K. pneumoniae ATCC 8303 X68; assay: In vitro antibacterial assay (MIC); assay type: cell-based; conditions: duplicate assays
Description: as §1

[8] = test system: P. mirabilis X235; assay: In vitro antibacterial assay (MIC); assay type: cell-based; conditions: iron deficient media, duplicate assays
Description: as §1

[9] = test system: S. aureus SG511; assay: In vitro antibacterial assay (MIC); assay type: cell-based; conditions: iron deficient media, duplicate assays
Description: as §1

[10] = test system: P. aeruginosa ARC 3502; assay: In vitro antibacterial assay (MIC); assay type: cell-based, Pseudomonas aeruginosa; conditions: iron deficient media, duplicate assays
Description: as §1

[11] = test system: P. aeruginosa ISR14-003; assay: In vitro antibacterial assay (MIC); assay type: cell-based, Pseudomonas aeruginosa; conditions: iron deficient media, duplicate assays
Description: as §1

[12] = test system: P. aeruginosa ISR14-004; assay: In vitro antibacterial assay (MIC); assay type: cell-based, Pseudomonas aeruginosa; conditions: iron deficient media, duplicate assays
Description: as §1

[13] = test system: P. aeruginosa KW799/wt; assay: In vitro antibacterial assay (MIC); assay type: cell-based, Pseudomonas aeruginosa; conditions: iron deficient media, duplicate assays
Description: as §1

[14] = test system: E. coli DCO; assay: In vitro antibacterial assay (MIC); assay type: cell-based, Escherichia coli; conditions: iron deficient media, duplicate assays
Description: as §1

[15] = test system: Gram-negative bacteria; assay: Antibacterial activity, summary statements; assay type: cell-based; conditions: in words; for activity against Gram-negative bacteria that are resistant to aztreonam: iron deficient media
Description: as §1

[16] = test system: A. baumannii ATCC 17978 pNT165 (carbapenemase producing strain); assay: In vitro antibacterial assay (MIC); assay type: cell-based, Acinetobacter baumannii; conditions: iron deficient media, duplicate assays
Description: as §1

[17] = test system: Gram-negative bacteria; conditions: in words, cited from earlier work
[18] = test system: P. aeruginosa 01; assay: In vitro antibacterial assay (MIC); assay type: cell-based, Pseudomonas aeruginosa; conditions: iron deficient media, duplicate assays
Description: as §1

[19] = A. baumannii ATCC 17978 pNT320, cephalosporinase producing
[20] = Acinetobacter baumannii, ATCC17961, iron deficient media
[21] = Acinetobacter baumannii, ATCC17978, A. baumannii ATCC 17978 pNT165, carbapenemase producing
[22] = Acinetobacter baumannii, ATCC17978, A. baumannii ATCC 17978 pNT320, cephalosporinase producing
[23] = Acinetobacter baumannii, BAA1797, iron deficient media
[24] = Klebsiella aerogenes, X816, E. aerogenes X816
[25] = Klebsiella pneumoniae, ATCC8303, iron deficient media
[26] = Pseudomonas aeruginosa, ARC3502, P. aeruginosa ARC 3502, read-out: MIC
[27] = P. aeruginosa ISR14-004, read-out: MIC
[28] = Citrobacter freundii, ATCC19063, C. freundii ATCC 19063
[29] = Proteus mirabilis, X235, P. mirabilis X235
[30] = Pseudomonas aeruginosa, 01, P. aeruginosa 01
[31] = Pseudomonas aeruginosa, ISR14003, P. aeruginosa ISR14-003, read-out: MIC
[32] = Pseudomonas aeruginosa, ISR14004, P. aeruginosa ISR14-004, read-out: MIC
[33] = Pseudomonas aeruginosa, KW799/WT

| Compound | MIC [2, 19] [µM] | MIC ([6]; E. aerogenes X816) [µM] | MIC [13] [µM] | MIC [1, 20] [µM] | MIC [16, 21] [µM] | MIC [2, 22] [µM] | MIC [3, 23] [µM] | MIC [6, 24] [µM] | MIC [7, 25] [µM] | MIC ([9]; Staphylococcus aureus) [µM] | MIC [10, 26] [µM] | MIC [12, 27] [µM] | MIC [5, 28] [µM] | MIC [8, 29] [µM] | MIC [18, 30] [µM] | MIC [11, 31] [µM] | MIC [12, 32] [µM] | MIC ([14]; Escherichia coli) [µM] | activity compared to bis-catechol conjugate 23 [15] | activity against Gram-negative bacteria that are resistant to aztreonam [15] | further results |
| --- | --- | --- | --- | --- | --- | --- | --- | --- | --- | --- | --- | --- | --- | --- | --- | --- | --- | --- | --- | --- | --- |
| CCN(C(C)C)C(C)C.C[C@H]1[C@H](NC(=O)/C(=N\OC(C)(C)C(=O)NOCC(=O)O)c2csc(N)n2)C(=O)N1S(=O)(=O)O [Compound 32, (Z)-2-(2-Aminothiazol-4-yl)-5,5-dimethyl-1-(((2S,3S)-2-methyl-4-oxo-1-sulfoazetidin-3-yl)amino)-1,6-dioxo-4,8-dioxa-3,7-diazadec-2-en-10-oic acid DIPEA salt] | >25 | 3 | 25 |  |  |  |  |  |  |  |  |  |  |  |  |  |  |  |  |  | MIC ([1]; iron deficient media): >25 µM; MIC ([3]; iron deficient media): >25 µM; MIC ([4]; B. dolosa AU0018, iron deficient media, duplicate assays): >25/(>25) μM; MIC ([5]; C. freundii ATCC 19063): 3 µM; MIC ([7]; iron deficient media): 0.8 µM; MIC ([8]; P. mirabilis X235): 0.05 µM; MIC [9]: >25 µM; MIC ([10]; P. aeruginosa ARC 3502): >25/(>25) μM; MIC ([11]; P. aeruginosa ISR14-003): >25/(>25) μM; MIC ([12]; P. aeruginosa ISR14-004): >25/(25) μM; MIC [14]: 1.6 µM; activity compared to aztreonam (9a) [15]: activity comparable to that of aztreonam |
| C[C@H]1[C@H](NC(=O)/C(=N\OC(C)(C)C(=O)O)c2csc(N)n2)C(=O)N1S(=O)(=O)O [Aztreonam 9a, aztreonam, reference compound] |  | 0.8 (≈ 0.348 µg/mL) | 3 (≈ 1.31 µg/mL) | > 25 | > 25 | > 25 | > 25 | 1.6 (≈ 0.697 µg/mL) | 0.2 (≈ 0.0871 µg/mL) | > 25 | > 25 | 6 (≈ 2.61 µg/mL) |  |  |  |  |  |  |  |  | MIC ([4]; Burkholderia dolosa, B. dolosa AU0018, iron deficient media, duplicate assays, read-out: MIC): > 25 µM; activity against problematic Gram-negative bacteria ([17]; including carbapenemase and cephalosporinase producing strains of P. aeruginosa and A. baumannii): not active |
| C[C@H]1[C@H](NC(=O)/C(=N\OC(C)(C)C(=O)NCCNC(=O)CN(CCCCNC(=O)c2ccc(O)c(O)c2Cl)C(=O)c2ccc(O)c(O)c2Cl)c2csc(N)n2)C(=O)N1S(=O)(=O)O [Compound 37] |  |  |  | 0.8 (≈ 0.757 µg/mL) | 25 (≈ 23.7 µg/mL) | 0.4 (≈ 0.379 µg/mL) | 0.8 (≈ 0.757 µg/mL) | 0.8 (≈ 0.757 µg/mL) | 0.2 (≈ 0.189 µg/mL) |  | 4.5 (≈ 4.26 µg/mL) |  | < 0.025 | < 0.025 | 1.2 (≈ 1.14 µg/mL) | 0.4 (≈ 0.379 µg/mL) | 0.2 (≈ 0.189 µg/mL) | 0.4 (≈ 0.379 µg/mL) | comparable to or better than | notably and unexpectedly active | MIC [13, 33]: 0.2 µM (≈ 0.189 µg/mL) |
| CC1(C)[C@H](NC(=O)/C(=N\OCc2cc(=O)c(O)cn2O)c2csc(N)n2)C(=O)N1OS(=O)(=O)O [BAL 30072] |  |  |  |  |  |  |  |  |  |  |  |  |  |  |  |  |  |  |  |  | in vitro activity ([17]; compounds without free carboxylic acids): retained potent in vitro activity |
| C[C@H]1[C@H](NC(=O)/C(=N\OC(C)(C)C(=O)NCCNC(=O)CN(CCCCNC(=O)c2cccc(O)c2O)C(=O)c2cccc(O)c2O)c2csc(N)n2)C(=O)N1S(=O)(=O)O [Compound 27, (2S,3S)-3-((Z)-18-(2-Aminothiazol-4-yl)-7-(2,3-dihydroxybenzoyl)-1-(2,3-dihydroxy-phenyl)-15,15-dimethyl-1,9,14-trioxo-16-oxa-2,7,10,13,17-pentaazanonadec-17-en-19-amido)-2-methyl-4-oxoazetidine-1-sulfonic acid] | 0.8 (≈ 0.702 µg/mL) |  |  | 0.8 (≈ 0.702 µg/mL) | 6 (≈ 5.27 µg/mL) | 1.6 (≈ 1.4 µg/mL) | 3 (≈ 2.63 µg/mL) | 0.05 (≈ 0.0439 µg/mL) | 0.05 (≈ 0.0439 µg/mL) | > 25 | 0.8 (≈ 0.702 µg/mL) | 0.2 (≈ 0.176 µg/mL) | 0.4 (≈ 0.351 µg/mL) | < 0.013 | 0.8 (≈ 0.702 µg/mL) | 0.8 (≈ 0.702 µg/mL) | 0.4 (≈ 0.351 µg/mL) | 0.025 (≈ 0.0219 µg/mL) | comparable to or better than | notably and unexpectedly active | MIC ([16]; A. baumannii ATCC 17978 pNT165, carbapenemase producing): 6.25 µM (≈ 5.49 µg/mL); MIC ([4]; Burkholderia dolosa, AU0018): > 25 µM; MIC ([18]; P. aeruginosa 01): 0.6 µM (≈ 0.527 µg/mL); MIC ([10]; P. aeruginosa ARC 3502, read-out: MIC): 1.6 µM (≈ 1.4 µg/mL); MIC ([11]; P. aeruginosa ISR14-003, read-out: MIC): 0.4 µM (≈ 0.351 µg/mL) |
| C[C@H]1[C@H](NC(=O)/C(=N\OC(C)(C)C(=O)NOCC(=O)NCCNC(=O)CN(CCCCNC(=O)c2cccc(O)c2O)C(=O)c2cccc(O)c2O)c2csc(N)n2)C(=O)N1S(=O)(=O)O [Compound 30, (2S,3S)-3-((Z)-22-(2-Aminothiazol-4-yl)-7-(2,3-dihydroxybenzoyl)-1-(2,3-dihydroxyphenyl)-19,19-dimethyl-1,9,14,18-tetraoxo-16,20-dioxa-2,7,10,13,17,21-hexaazatricos-21-en-23-amido)-2-methyl-4-oxoazetidine-1-sulfonic acid] | 1.6 (≈ 1.52 µg/mL) |  | 0.4 (≈ 0.38 µg/mL) | 0.8 (≈ 0.761 µg/mL) |  | 3 (≈ 2.85 µg/mL) | 1.6 (≈ 1.52 µg/mL) | 0.05 (≈ 0.0475 µg/mL) | 0.05 (≈ 0.0475 µg/mL) | > 25 |  |  | 0.4 (≈ 0.38 µg/mL) | < 0.013 | 0.8 (≈ 0.761 µg/mL) | 0.8 (≈ 0.761 µg/mL) |  | 0.025 (≈ 0.0238 µg/mL) | comparable to or better than | notably and unexpectedly active | MIC ([4]; Burkholderia dolosa, AU0018): > 25 µM; MIC ([18]; P. aeruginosa 01): 0.4 µM (≈ 0.38 µg/mL); MIC [13, 33]: 0.8 µM (≈ 0.761 µg/mL) |
